# Source: patent publication US20220288197A1, “METHODS OF TREATING A SUBJECT WITH A CDC42-SPECIFIC INHIBITOR” (Children’s Hospital Medicai Center, priority 2019, published 2022)
# Entries after “also recorded” stand apart in the source; their conditions may differ. Where two headings read alike, the source gives them in different places.
# Tests used:
# [1] = test system: aging-associated inflammatory cytokines in serum; experiment: Cytokine array (Luminex) of serum of aged mice; type: in vivo, C57BL/6 mice
# Procedure: (§1) CASIN solution and IP treatment. CASIN was prepared fresh before injection by dissolving the drug directly in beta-cyclodextrin solution (Sigma #H5784). IP injections were performed in the morning, every 24 hours, for 4 consecutive days during week 75 of age of the mice. Control mice were injected with equal volume of the solvent. Serum for the cytokine array was prepared from the day 7 bleeding point. Serum for mass spectrometry analysis of CASIN levels was prepared by bleeding an equal (for sex, strain, origin and age) cohort of mice 3 hours, 24 hours, and 48 hours after the end of the treatment. The same stock of CASIN was used for the entire study. CASIN was provided as lyophilized powder.
# Cytokine array. Lumimex Method. Cytokine concentrations in the sample supernatants were determined by using Milliplex™ Multiplex kits (MilliporeSigma, Darmstadt, Germany) according to manufacturer's protocol. Briefly, in a 96 well black plate, 25 μL sample in duplicate was incubated with 25 μL antibody coated beads overnight at 4° C. on a plate shaker. Plates were then washed 2 times using BioTek 405 TS (BioTek, Winooski, Vt.) and 25 μL of secondary antibody was added and incubated at room temperature for 1 hour while shaking. Finally, 25 μL of streptavidin-RPE was added directly to the secondary antibody and incubated for 30 minutes at room temperature with shaking. Plates were then washed 2 more times and 150 μL of sheath fluid was added. Plates were shaken for 5 minutes and then read using luminex technology on the Milliplex Analyzer (MilliporeSigma, Darmstadt, Germany). Concentrations were calculated from standard curves using recombinant proteins and expressed in pg/ml.
# (§2) Cytokine array analyses were performed to investigate the extent to which aging-associated inflammatory cytokines in serum of aged mice were affected by CASIN treatment.
# [2] = test system: inactivated influenza virus (H3N2); experiment: Viral vaccination response, inactivated influenza virus, antibody titer by ELISA; type: in vivo, C57BL/6 mice; conditions: aged mice, 21 days after the second vaccination, immunized 12 weeks post CASIN treatment, FIG. 5(D)
# Procedure: (§3) Briefly, 75 week-old C57BL/6 mice (referred to in the results as “Old”) and 12-16 week old mice (referred to in the results as “young”) were injected intraperitoneal (“IP”) every 24 hours for four days with a Cdc42-specific inhibitor (e.g., CASIN) at a dosage of interest (e.g., 25 mg/kg) or with solvent as a control group (referred to in the results as “Solvent”). On the fifth day, mice were treated with 5-fluorouracil (“5-FU”). Two methods of vaccination were investigated.
# For viral vaccination, animals were immunized twice at an interval of 4 weeks with inactivated influenza virus (10 μg H3N2+10 μL Al(OH)3) i.m. 12 weeks post CASIN treatment. The antibody titer was determined in serum 21 days after the second vaccination using ELISA technology. n=at least 3 per experiment.
# Cdc42 = biological target: T1, Cdc42 (Mus musculus, UniProt P60766); experiment: Cdc42-GTPase effector domain pull-down assay in bone marrow cells after systemic in vivo treatment; design: species or system C57BL/6 mice; conditions: FIG. 1c
# T1 construct: lineage depleted BM cells (10^6) were lysed in a Mg^2+ lysis/wash buffer; from tissue; host or cells: lineage-depleted bone marrow cells of C57BL/6 mice treated in vivo with CASIN
# T1 sequence (P60766 whole entry, the tested form may be a part): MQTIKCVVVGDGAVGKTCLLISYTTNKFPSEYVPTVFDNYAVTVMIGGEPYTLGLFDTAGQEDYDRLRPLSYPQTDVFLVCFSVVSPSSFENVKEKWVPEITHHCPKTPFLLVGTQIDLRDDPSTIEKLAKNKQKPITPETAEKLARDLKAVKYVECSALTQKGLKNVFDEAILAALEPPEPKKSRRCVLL
# Procedure: Cdc42-GTPase effector domain pull-down assays. Relative levels of GTP-bound Cdc42 were determined by an effector pull-down assay. Briefly, lineage depleted BM cells (10^6) were lysed in a Mg^2+ lysis/wash buffer (Upstate cell signaling solutions) containing 10% glycerol, 25 mM sodium fluoride, 1 mM sodium orthovanadate and a protease inhibitor cocktail (Roche Diagnostics). Samples were incubated with PAK-1 binding domain/agarose beads and bound (activated) as well as unbound (non-activated) Cdc42 fractions were probed by immunoblotting with an anti-Cdc42 antibody (Millipore, rabbit polyclonal). Activated protein was normalized to total protein and/or 3-actin (Sigma) and the relative amount was quantified by densitometry.
# (§4) Accordingly, chronic toxicity issues from the administration of inhibitor was unlikely. […] Furthermore, CASIN treatment reversed Cdc42 activity in the aged mice cohort to an approximate level of activity seen in the young mice control cohort. Thus, CASIN treatment generally reverted Cdc42 activity levels in aged mice to the level existing in mice approximately 60 weeks younger in age.
# [3] = LC-MS/MS measurement of CASIN pharmacokinetics in mouse serum; type: in vivo, C57BL/6 mice; conditions: for concentration at 3 h: female, C57BL/6, mouse, serum, intraperitoneal, 25 mg/kg
# Procedure: as §1, with “Serum for mass spectrometry analysis of CASIN levels was prepared by bleeding an equal (for sex, strain, origin and age) cohort of mice 3 hours, 24 hours, and 48 hours after the end of the treatment.” left out
# Liquid Chromatography-Mass Spectrometry (LC-MS/MS) measurements of CASIN pharmacokinetics in mouse serum. A LC/MS/MS ion chromatography protocol was employed to measure serum CASIN concentration ranging 0.1-10 μM by comparing serum CASIN from i.p. injected mice at varying times with a standard curve derived by in vitro spiking of mouse serum with defined doses of CASIN. An Autosampler maximum recovery vials with caps (Waters), an UPLC-MS system (Waters Quattro Premier XE mass spectrometry with ACQUITY UPLC system), an Acquity BEH C18 UPLC column (2.1×75 mm, 1.7 μm) (Waters), and an Acquity BEH C18 UPLC guard column (Waters) were used. For LC gradient, solvent A contained acetonitrile/water (5/95) with 2 mM ammonium acetate and solvent B contained acetonitrile/water (90/10). The gradient mobile phase switched from 60% solvent A to 57% solvent A over 2 min, to 50% solvent A at 2.1 min, to 46% solvent A over 9.9 min, and then, after changing to 30% at 12.1 min, to 1% solvent A over 5.9 min, then to 60% solvent A at 18.1 min and this was held for 2 min. Column temperature was kept at 25° C. The capillary voltage was 3 KV for electrospray negative (ES-) mode, cone voltage is 45 V, collision 30 V, desolvation temperature, 350° C.; desolvation gas flow is 600 L/h; source temperature was 120° C.; and MRM transition m/z is 305.1->244.
# (§5) To determine that a short-term systemic treatment of aged animals with a Cdc42-specific inhibitor would regulate lifespan, CASIN was administered i.p. every 24 hours for 4 consecutive days to 75-week old female C57BL/6 mice (FIG. 1a). CASIN levels in serum were monitored via liquid chromatography-mass spectrometry (FIGS. 2a and 2b). A 50 mg/kg single dose resulted initially in a concentration of about 10 μM in serum (data not shown).
# [4] = test system: 75-week old female C57BL/6 mice; experiment: Lifespan (longevity) study of aged mice, 4-day i.p. treatment; type: in vivo
# Source text: (§6) Mice. Mice included in the study were female C57BL/6 and were obtained from the internal divisional stock (derived from C57BL/6j mice obtained from both The Jackson Laboratory and NIA/Charles River as well as from C57BL/6JRj mice from Janvier). For the longevity study described herein, 40 mice were randomly selected at 70 weeks of age. Mice were weighed and bled before the beginning of the treatment (day 0) and at day 7 and 35. […] Mice that needed to be euthanized because they were scored as “weak and about to die” according to our approved animal license protocol for evaluating mouse health status remained part of the dataset. Allocation to control or treated group was done randomly (20 mice each experimental group).
# Median lifespan, 95% confidence intervals and survival analysis were calculated by Prism GraphPad v7.0c. Of note, the median lifespan of the control group matched data obtained for C57BL/6j mice in a large set of lifespan studies of diverse inbred mouse strains. […]
# as §5, with “A 50 mg/kg single dose resulted initially in a concentration of about 10 μM in serum (data not shown).” left out
# [5] = Toxicity, weight and peripheral blood counts in the lifespan study; type: in vivo
# Source text: as §6
# Flow cytometry of Peripheral Blood (PB). PB cell immunostaining was performed according to standard procedures and samples were analyzed on a LSRII flow cytometer (BD Biosciences). For PB lineage analysis, the antibodies used were from eBioscience: anti-CD3ε (clone 145-2C11), anti-B220 (clone RA3-6B2), anti-Mac-1 (clone M1/70) and anti-Gr-1 (clone […]). Lineage FACS analysis data were plotted as the percentage of B220+, CD3+ and Myeloid (Gr-1+, Mac-1+ and Gr-1+Mac-1+) cells among total white blood cells. WBC (white blood cell), RBC (red blood cell), Ly (lymphocytes), NE (neutrophils), and Mo (monocyte) counts were generated by using the hemocytometer Hemavet 950, DREW SCIENTIFIC Inc, (FL 33014), USA.
# as §4, §2
# [6] = test system: hepatitis B virus (HBV) core antigen; experiment: DNA vaccination response with pCI/C DNA encoding HBV core antigen; type: in vivo, C57BL/6 mice; conditions: aged mice, 13 days after immunization, OLD Solvent vs. OLD CASIN, p<0.05, FIG. 5(B)
# Procedure: as §3
# For DNA vaccination: 12 weeks after transplantation, recipient mice were immunized with pCI/C DNA encoding the hepatitis B virus (“HBV”) core antigen. FIG. 5(B) provides the results for DNA vaccination with the HBV core antigen 13 days after immunization along with an ovalbumin (“Ova”) specific immune response. The frequency of interferon gamma positive CD3^+CD8^+ T-cells was analyzed, which is an established surrogate measurement for the success of DNA vaccination protocols. […] In FIG. 5(C), splenic K^b/C93-100-dimer^+ CD8^+ T-cell frequencies were determined by flow cytometry 13 days post-immunization with the HBV core antigen. These T-cell frequencies are a direct measurement of antigen-specific T-cells.
compound,measurement,setting,value
OCCNC1CCCc2c1[nH]c1ccc(-c3ccccc3)cc21 (stereo not shown) [CASIN],GM-CSF concentration in serum,"[1]; day 7, FIG. 3",trend to be reduced
same,IL-2 concentration in serum,"[1]; day 7, FIG. 3",trend to be reduced
same,IL-9 serum concentration,"[1]; day 7, FIG. 1h",increased in serum concentration
same,antibody titer in serum,[2],increase in antibody titer; also recorded: approximately equal to that seen in young mice
same,Cdc42-GTP in aged bone marrow cells,"Cdc42; 24 hours after the last injection, aged mice",reduction of Cdc42-GTP in aged bone marrow cells to the level seen in young
same,decrease of Cdc42 activity,Cdc42; with no regard to the age of mouse,approximately half
same,CASIN remaining in serum at the end of the 48 hour window,"[3]; 25 mg/kg i.p. for 4 consecutive days, 48 hours",approximately no CASIN remaining in serum
same,CASIN concentration in serum,"[3]; 50 mg/kg single dose, initially (data not shown)",about 10 μM
same,concentration at 3 h,"[3]; 25 mg/kg i.p. for 4 consecutive days, 48 hour window of analysis, 3 hours, read-out: concentration of CASIN in serum after 3 hours",~2 µM
same,concentration at 3 h,"[3]; 25 mg/kg i.p., old mice, 3 hours after injection, FIG. 2b, read-out: levels of CASIN in serum 3 hours after injection",~5 µM
same,Median survival,"[4]; aged mice treated at week 75, 25 mg/kg i.p. 4 consecutive days, n=17, control 123.5 weeks",136 weeks
same,average and maximum lifespan,"[4]; aged mice treated for 4 consecutive days, FIG. 1d",extension of both their average and maximum lifespan
same,red blood cell count (RBC),"[5]; day 7 and day 35, FIG. 2e",did not change
same,white blood cell count (WBC),"[5]; day 7 and day 35, FIG. 2d",did not change
same,frequency and count of myeloid and lymphoid cells in peripheral blood (PB),"[5]; day 7 and day 35, FIGS. 2f-k",did not change
same,weight,"[5]; day 7 and day 35 after beginning of treatment, FIG. 2c",did not change
same,acute toxicity,"[5]; four days of consecutive i.p. injections, 25 mg/kg, aged mice",did not induce acute toxicity
same,deaths of treated mice after CASIN injections,[5]; within 4 weeks after injections,none of the treated mice died
same,frequency of interferon gamma positive CD3+CD8+ T-cells,[6],statistically significant increase in immune response
